The values below come from patent US7384954B2 (priority 2003, dated 2008).

The experiment deals with α7 nAChR subtype (Rattus norvegicus, UniProt Q05941). Type of experiment: binding. The following applies: read-out: KD of radioligand from saturation curves.
Sequence of α7 nAChR subtype (Q05941 23-502 limits assumed): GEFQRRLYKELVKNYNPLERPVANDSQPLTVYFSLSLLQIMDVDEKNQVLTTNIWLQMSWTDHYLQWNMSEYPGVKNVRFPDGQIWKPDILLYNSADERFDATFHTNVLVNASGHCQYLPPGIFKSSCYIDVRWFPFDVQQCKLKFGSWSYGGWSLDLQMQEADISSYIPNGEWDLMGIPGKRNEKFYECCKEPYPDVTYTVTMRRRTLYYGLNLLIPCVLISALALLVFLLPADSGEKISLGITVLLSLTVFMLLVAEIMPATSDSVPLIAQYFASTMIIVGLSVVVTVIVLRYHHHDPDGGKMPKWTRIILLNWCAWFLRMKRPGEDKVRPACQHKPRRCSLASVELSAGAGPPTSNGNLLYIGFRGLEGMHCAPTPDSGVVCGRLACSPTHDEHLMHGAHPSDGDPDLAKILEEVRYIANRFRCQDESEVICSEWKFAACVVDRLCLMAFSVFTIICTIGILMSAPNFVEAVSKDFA

125I-α-Bungarotoxin [[^125I]-α-BTX]: the Kd worked out at 1.67 nM.
